# Experimental data from patent US20240261367A1, “CYCLIC PEPTIDE IMMUNOMODULATORS” (priority 2021, published 2024).
# Starred links: 1 amine or outer side, 2 acyl side, 3 side chain; linkers in the order of their positions; H or OH if unused. Positions of bridges follow the written chain, without caps; N, C: chain ends. Non-standard residues stand in square brackets, D forms with d. Residues, ends and D or L forms follow the SMILES beside them. *: point of attachment. X2 = COC(=O)CCCCCCCCCCCCCCCCC(=O)N[C@@H](CCC(=O)NCCOCCOCCOCCOCCOCCOCCOCCOCCOCCOCCOCCn1cc(C[C@H](NC(=N)CNC(=O)[C@H](CSCC(=O)[*:1])NC(=N)[C@H](CC(C)C)N[*:2])C(=O)OC)nn1)C(=O)OC; X1 = COC(=O)CCCCCCCCCCCCCCCCC(=O)N[C@@H](CCC(=O)NCCOCCOCCOCCOCCOCCOCCOCCOCCOCCOCCOCCn1cc(C[C@H](NC(=N)CN*)C(=O)O)nn1)C(=O)O; Trp(1-CH2CO2Me) = COC(=O)Cn1cc(C[C@H](N)C(=O)O)c2ccccc21; Trp(1-CH2COOH) = N[C@@H](Cc1cn(CC(=O)O)c2ccccc12)C(=O)O; Hyp = O=C(O)[C@@H]1C[C@@H](O)CN1; NMeNle = CCCC[C@H](NC)C(=O)O; NMeA = CN[C@@H](C)C(=O)O; Dab = NCC[C@H](N)C(=O)O; Dap = NC[C@H](N)C(=O)O
# Target: T1, PD-1/PD-L1 (Homo sapiens, UniProt Q9NZQ7)
# T1 construct: TVMV protease site linker (C); made in house; host or cells: HEK293T cells
# Test: PD-1/PD-L1 Homogenous Time-Resolved Fluorescence (HTRF) binding assay
# From the text: Methods for Testing the Ability of Macrocyclic Peptides to Compete for the Binding of PD-1 to PD-L1 Using Homogenous Time-Resolved Fluorescence (HTRF) Binding Assays
# The ability of the compounds of formula (I) to bind to PD-L1 was investigated using a PD-1/PD-L1 Homogenous Time-Resolved Fluorescence (HTRF) binding assay.
# Homogenous Time-Resolved Fluorescence (HTRF) Binding Assay
# The interaction of PD-1 and PD-L1 can be assessed using soluble, purified preparations of the extracellular domains of the two proteins. The PD-1 and PD-L1 protein extracellular domains were expressed as fusion proteins with detection tags, for PD-1, the tag was the Fc portion of Immunoglobulin (PD-1-Ig) and for PD-L1 it was the 6 histidine motif (PD-L1-His). All binding studies were performed in an HTRF assay buffer consisting of dPBS supplemented with 0.1% […] bovine serum albumin and 0.05% (v/v) Tween-20. […] HTRF detection was achieved using europium crypate-labeled anti-Ig (1 nM final) and allophycocyanin (APC) labeled anti-His (20 nM final). Antibodies were diluted in HTRF detection buffer and 5 μl was dispensed on top of the binding reaction. The reaction mixture was allowed to equilibrate for 30 minutes and the resulting signal (665 nm/620 nm ratio) was obtained using an EnVision fluorometer. Additional binding assays were established between the human proteins PD-1-Ig/PD-L2-His (20 & 5 nM, respectively) and CD80-His/PD-L1-Ig (100 & 10 nM, respectively).
# Recombinant Proteins: Human PD-1 (25-167) with a C-terminal human Fc domain of immunoglobulin G (Ig) epitope tag [hPD-1 (25-167)-3S-IG] and human PD-L1 (18-239) with a C-terminal His epitope tag [hPD-L1(18-239)-TVMV-His] were expressed in HEK293T cells and purified sequentially by ProteinA affinity chromatography and size exclusion chromatography. Human PD-L2-His and CD80-His was obtained through commercial sources.
# Table 1 lists the IC50 values for representative examples of this disclosure measured in the PD-1/PD-L1 Homogenous Time-Resolved Fluorescence (HTRF) binding assay.
# [1] = PD-L1-His (10 nM) pre-incubated with inhibitor 15 m, then PD-1-Ig (20 nM)
# T1 sequence (Q9NZQ7 18-239): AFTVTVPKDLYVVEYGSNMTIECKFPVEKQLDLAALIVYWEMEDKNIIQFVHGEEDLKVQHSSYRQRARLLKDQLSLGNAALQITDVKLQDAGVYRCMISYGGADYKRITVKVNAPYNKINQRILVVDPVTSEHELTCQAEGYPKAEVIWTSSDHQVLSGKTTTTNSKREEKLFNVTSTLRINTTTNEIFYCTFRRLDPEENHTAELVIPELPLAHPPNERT
Structure (SMILES),IC50 [1],IC50 (10 min incubation)
CCCC[C@H]1C(=O)N(C)[C@@H](CCCC)C(=O)N[C@@H](CC(C)C)C(=N)N[C@H](C(=O)NCC(=N)N[C@@H](Cc2cn(CCOCCOCCOCCOCCOCCOCCOCCOCCOCCOCCOCCNC(=O)CC[C@H](NC(=O)CCCCCCCCCCCCCCCCC(=O)OC)C(=O)OC)nn2)C(=O)OC)CSCC(=O)NCC(=O)N(C)[C@@H](C)C(=O)N[C@@H](CC(N)=O)C(=O)N2CCC[C@H]2C(=O)N[C@@H](CN)C(=O)N[C@@H](CC(C)C)C(=O)N2C[C@H](O)C[C@H]2C(=O)N[C@@H](Cc2c[nH]c3ccccc23)C(=O)N[C@@H](CCN)C(=O)N[C@@H](Cc2cn(CC(=O)OC)c3ccccc23)C(=O)N1C [Example 1001] (G[NMeA]NP[Dap]L[Hyp]W[Dab][Trp(1-CH2CO2Me)][NMeNle][NMeNle]; linker N-C via X2),7.3 nM,–
CCCC[C@H]1C(=O)N(C)[C@@H](CCCC)C(=O)N[C@@H](CC(C)C)C(=O)N[C@H](C(=O)NCC(=O)N[C@@H](Cc2cn(CCOCCOCCOCCOCCOCCOCCOCCOCCOCCOCCOCCNC(=O)CC[C@H](NC(=O)CCCCCCCCCCCCCCCCC(=O)O)C(=O)O)nn2)C(=O)O)CSCC(=O)N[C@@H](Cc2ccc(O)cc2)C(=O)N(C)[C@@H](C)C(=O)N[C@@H](CC(N)=O)C(=O)N2CCC[C@H]2C(=O)N[C@@H](CNC(=O)OC(C)(C)C)C(=O)N[C@@H](CC(C)C)C(=O)N2C[C@H](O)C[C@H]2C(=O)N[C@@H](Cc2c[nH]c3ccccc23)C(=O)N[C@@H](CCNC(=O)OC(C)(C)C)C(=O)N[C@@H](Cc2cn(CC(=O)O)c3ccccc23)C(=O)N1C [Example 1002],6.5 nM,–
CCCC[C@H]1C(=O)N(C)[C@@H](CCCC)C(=O)N[C@@H](CC(C)C)C(=O)N[C@H](C(=O)NCC(=O)N[C@@H](Cc2cn(CCOCCOCCOCCOCCOCCOCCOCCOCCOCCOCCOCCNC(=O)CC[C@H](NC(=O)CCCCCCCCCCCCCCCCC(=O)O)C(=O)O)nn2)C(=O)O)CSCC(=O)N[C@@H](Cc2ccc(O)cc2)C(=O)N(C)[C@@H](C)C(=O)N[C@@H](CC(N)=O)C(=O)N2CCC[C@H]2C(=O)N[C@@H](CNC(=O)OC(C)C)C(=O)N[C@@H](CC(C)C)C(=O)N2C[C@H](O)C[C@H]2C(=O)N[C@@H](Cc2c[nH]c3ccccc23)C(=O)N[C@@H](CCN)C(=O)N[C@@H](Cc2cn(CC(=O)O)c3ccccc23)C(=O)N1C [Example 1003],9.1 nM,–
C=C(CC[C@@H]1NC(=O)[C@H](Cc2c[nH]c3ccccc23)NC(=O)[C@@H]2C[C@@H](O)CN2C(=O)[C@H](CC(C)C)NC(=O)[C@H](CNC(=O)CC[C@@H](C)[C@H]2CC[C@H]3[C@@H]4[C@H](O)C[C@@H]5C[C@H](O)CC[C@]5(C)[C@H]4C[C@H](O)[C@]23C)NC(=O)[C@@H]2CCCN2C(=O)[C@H](CC(N)=O)NC(=O)[C@H](C)N(C)C(=O)[C@H](Cc2ccc(O)cc2)NC(=O)CSC[C@@H](C(=O)NCC(=O)N[C@@H](Cc2cn(CCOCCOCCOCCOCCOCCOCCOCCOCCOCCOCCOCCNC(=O)CC[C@H](NC(=O)CCCCCCCCCCCCCCCCC(=O)O)C(=O)O)nn2)C(=O)O)NC(=O)[C@H](CC(C)C)NC(=O)[C@H](CCCC)N(C)C(=O)[C@H](CCCC)N(C)C(=O)[C@H](Cc2cn(CC(=O)O)c3ccccc23)NC1=O)CC[C@@H](C)[C@H]1CC[C@H]2[C@@H]3[C@H](O)C[C@@H]4C[C@H](O)CC[C@]4(C)[C@H]3C[C@H](O)[C@]12C [Example 1004],200 nM,–
CCCC[C@H]1C(=O)N(C)[C@@H](CCCC)C(=O)N[C@@H](CC(C)C)C(=O)N[C@H](C(=O)NCC(=O)N[C@@H](Cc2cn(CCOCCOCCOCCOCCOCCOCCOCCOCCOCCOCCOCCNC(=O)CC[C@H](NC(=O)CCCCCCCCCCCCCCCCC(=O)OCC)C(=O)OC)nn2)C(=O)O)CSCC(=O)N[C@@H](Cc2ccc(O)cc2)C(=O)N(C)[C@@H](C)C(=O)N[C@@H](CC(N)=O)C(=O)N2CCC[C@H]2C(=O)N[C@@H](CN)C(=O)N[C@@H](CC(C)C)C(=O)N2C[C@H](O)C[C@H]2C(=O)N[C@@H](Cc2c[nH]c3ccccc23)C(=O)N[C@@H](CCN)C(=O)N[C@@H](Cc2cn(CC(=O)O)c3ccccc23)C(=O)N1C [Example 1005],12 nM,–
CCCC[C@H]1C(=O)N(C)[C@@H](CCCC)C(=O)N[C@@H](CC(C)C)C(=O)N[C@H](C(=O)NCC(=O)N[C@@H](Cc2cn(CCOCCOCCOCCOCCOCCOCCOCCOCCOCCOCCOCCNC(=O)CC[C@H](NC(=O)CCCCCCCCCCCCCCCCC(=O)O)C(=O)O)nn2)C(=O)O)CSCC(=O)N[C@@H](Cc2ccc(O)cc2)C(=O)N(C)[C@@H](C)C(=O)N[C@@H](CC(N)=O)C(=O)N2CCC[C@H]2C(=O)N[C@@H](CNC(=O)CC[C@@H](C)[C@H]2CC[C@H]3[C@@H]4[C@H](O)C[C@@H]5C[C@H](O)CC[C@]5(C)[C@H]4C[C@H](O)[C@]23C)C(=O)N[C@@H](CC(C)C)C(=O)N2C[C@H](O)C[C@H]2C(=O)N[C@@H](Cc2c[nH]c3ccccc23)C(=O)N[C@@H](CCN)C(=O)N[C@@H](Cc2cn(CC(=O)O)c3ccccc23)C(=O)N1C [Example 1006],–,28 nM
CCCC[C@H]1C(=O)N(C)[C@@H](CCCC)C(=O)N[C@@H](CC(C)C)C(=O)N[C@H](C(=O)NCC(=N)N[C@@H](Cc2cn(CCOCCOCCOCCOCCOCCOCCOCCOCCOCCOCCOCCNC(=O)CC[C@H](NC(=O)CCCCCCCCCCCCCCCCC(=O)OC)C(=O)O)nn2)C(=O)O)CSCC(=O)N[C@@H](Cc2ccc(O)cc2)C(=O)N(C)[C@@H](C)C(=O)N[C@@H](CC(N)=O)C(=O)N2CCC[C@H]2C(=O)N[C@@H](CN)C(=O)N[C@@H](CC(C)C)C(=O)N2C[C@H](O)C[C@H]2C(=O)N[C@@H](Cc2c[nH]c3ccccc23)C(=O)N[C@@H](CCN)C(=O)N[C@@H](Cc2cn(CC(=O)O)c3ccccc23)C(=O)N1C [Example 1007] ({CH2CO}-Y[NMeA]NP[Dap]L[Hyp]W[Dab][Trp(1-CH2COOH)][NMeNle][NMeNle]LC-X1; thioether N-14),21 nM,–
CCCC[C@H]1C(=O)N(C)[C@@H](CCCC)C(=O)N[C@@H](CC(C)C)C(=O)N[C@H](C(=O)NCC(=O)N[C@@H](Cc2cn(CCOCCOCCOCCOCCOCCOCCOCCOCCOCCOCCOCCNC(=O)CC[C@H](NC(=O)CCCCCCCCCCCCCCCCC(=O)O)C(=O)O)nn2)C(=O)O)CSCC(=O)N[C@@H](Cc2ccc(O)cc2)C(=O)N(C)[C@@H](C)C(=O)N[C@@H](CC(N)=O)C(=O)N2CCC[C@H]2C(=O)N[C@@H](CNC(=O)OCC)C(=O)N[C@@H](CC(C)C)C(=O)N2C[C@H](O)C[C@H]2C(=O)N[C@@H](Cc2c[nH]c3ccccc23)C(=O)N[C@@H](CCNC(=O)OCC)C(=O)N[C@@H](CC2=CC(CC(=O)O)c3ccccc32)C(=O)N1C (some centres unmarked) [Example 1008],5.9 nM,–
CCCC[C@H]1C(=O)N(C)[C@@H](CCCC)C(=O)N[C@@H](CC(C)C)C(=O)N[C@H](C(=O)NCC(=O)N[C@@H](Cc2cn(CCOCCOCCOCCOCCOCCOCCOCCOCCOCCOCCOCCNC(=O)CC[C@H](NC(=O)CCCCCCCCCCCCCCCCC(=O)O)C(=O)O)nn2)C(=O)O)CSCC(=O)N[C@@H](Cc2ccc(O)cc2)C(=O)N(C)[C@@H](C)C(=O)N[C@@H](CC(N)=O)C(=O)N2CCC[C@H]2C(=O)N[C@@H](CNC(=O)OCC)C(=O)N[C@@H](CC(C)C)C(=O)N2C[C@H](O)C[C@H]2C(=O)N[C@@H](Cc2c[nH]c3ccccc23)C(=O)N[C@@H](CCN)C(=O)N[C@@H](CC2=CC(CC(=O)O)c3ccccc32)C(=O)N1C (some centres unmarked) [Example 1009],12 nM,–
C#CCOC(=O)NC[C@@H]1NC(=O)[C@@H]2CCCN2C(=O)[C@H](CC(N)=O)NC(=O)[C@H](C)N(C)C(=O)[C@H](Cc2ccc(O)cc2)NC(=O)CSC[C@@H](C(=O)NCC(=O)N[C@@H](Cc2cn(CCOCCOCCOCCOCCOCCOCCOCCOCCOCCOCCOCCNC(=O)CC[C@H](NC(=O)CCCCCCCCCCCCCCCCC(=O)O)C(=O)O)nn2)C(=O)O)NC(=O)[C@H](CC(C)C)NC(=O)[C@H](CCCC)N(C)C(=O)[C@H](CCCC)N(C)C(=O)[C@H](CC2=CC(CC(=O)O)c3ccccc32)NC(=O)[C@H](CCN)NC(=O)[C@H](Cc2c[nH]c3ccccc23)NC(=O)[C@@H]2C[C@@H](O)CN2C(=O)[C@H](CC(C)C)NC1=O (some centres unmarked) [Example 1010],10 nM,–
CCCC[C@H]1C(=O)N(C)[C@@H](CCCC)C(=O)N[C@@H](CC(C)C)C(=O)N[C@H](C(=O)NCC(=O)N[C@@H](Cc2cn(CCOCCOCCOCCOCCOCCOCCOCCOCCOCCOCCOCCNC(=O)CC[C@H](NC(=O)CCCCCCCCCCCCCCCCC(=O)OC)C(=O)OC)nn2)C(=O)O)CSCC(=O)N[C@@H](Cc2ccc(O)cc2)C(=O)N(C)[C@@H](C)C(=O)N[C@@H](CC(N)=O)C(=O)N2CCC[C@H]2C(=O)N[C@@H](CN)C(=O)N[C@@H](CC(C)C)C(=O)N2C[C@H](O)C[C@H]2C(=O)N[C@@H](Cc2c[nH]c3ccccc23)C(=O)N[C@@H](CCN)C(=O)N[C@@H](CC2=CC(CC(=O)O)c3ccccc32)C(=O)N1C (some centres unmarked) [Example 1011],11 nM,–
